Assay results as given in patent publication US20140228682A1, “IMAGING PROBES, IMAGING SYSTEMS, AND METHODS OF IMAGING” (priority 2013, published 2014).

Assays:
cartilage [1] = test: optical (Cerenkov) imaging of joints in mice, in vivo and ex vivo; conditions: FIG. 3, tail vein injection, 5 days post-injection, optical imaging instrument (in vivo and ex vivo)
Method: (§1) The mice were injected with tracer through tail vein and then imaged at 5 days post-injection by small animal PET (left two columns of images) and optical imaging instrument (in vivo and ex vivo) (right two columns images).

cartilage [2] = test: small animal PET imaging of cartilage / osteoarthritis joints in mice; assay type: in vivo
Method: The mice were injected with ^89Zirconium oxalate through tail vein and then imaged by small animal PET.
as §1

[3] = FIG. 3, tail vein injection, 5 days post-injection

**Q.** What does the source list for ^89Zr oxalate?
**A.** signal in OA joints (cartilage [1]): low signal; signal in sham and untreated joints (cartilage [1]): high signal; signal in OA joints (cartilage [2]; FIG. 2, tail vein injection): low signal; signal in sham and untreated joints (cartilage [2]; FIG. 2, tail vein injection): high signal; signal in OA joints (cartilage [2]; [3]): low signal; signal in sham and untreated joints (cartilage [2]; [3]): high signal
